PubChem BioAssay (NCI)
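A five-concentration, 48-hour dose response in 96-well plates underlies each endpoint, interpolated linearly between surrounding concentrations. GI50 = concentration required for 50% inhibition of growth. At the TGI there is no net growth.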

Experiments:
Assay in all cases: growth of human tumour cells (NCI), 48 h
[1] = test system: HCT-15 colon
[2] = test system: MDA-MB-435
[3] = test system: COLO 205 colon
[4] = test system: SF-295 CNS
[5] = test system: DU-145 prostate
[6] = test system: A549 NSCLC
[7] = test system: MCF7 breast
[8] = test system: IGROV1 ovarian
[9] = test system: MOLT-4 leukemia
[10] = test system: SN12C renal

Row | SMILES | GI50 [1] [µM] | TGI [1] [µM] | GI50 [2] [µM] | TGI [2] [µM] | GI50 [3] [µM] | TGI [3] [µM] | GI50 [4] [µM] | TGI [4] [µM] | GI50 [5] [µM] | TGI [5] [µM] | GI50 [6] [µM] | TGI [6] [µM] | GI50 [7] [µM] | TGI [7] [µM] | GI50 [8] [µM] | TGI [8] [µM] | GI50 [9] [µM] | TGI [9] [µM] | GI50 [10] [µM] | TGI [10] [µM]
1 | Cc1cc(N2CCCC2)nc(NCc2cc(Nc3ccnc4cc(Cl)ccc34)ccc2F)n1 | 1.06 | 2.35 | 1.51 | 2.99 | 0.278 | 1.43 | 1.16 | 2.53 | 1.3 | 2.69 | 1.71 | 3.47 | 0.216 | 1.07 | – | – | – | – | – | –
2 | C[n+]1c(-c2ccc(/C=N/NC(=O)c3ccc(C(=O)N/N=C/c4ccc(-c5cn6ccccc6[n+]5C)cc4)cc3)cc2)cn2ccccc21 | > 1000 | > 1000 | > 1000 | > 1000 | > 1000 | > 1000 | 290 | 944 | 206 | 698 | 176 | 314 | 343 | > 1000 | > 1000 | > 1000 | 135 | 292 | 213 | 493
3 | Cc1cc(C(=O)O)c(C)n1-c1cccc(C(=O)O)c1 | > 100 | > 100 | > 100 | > 100 | > 100 | > 100 | > 100 | > 100 | > 100 | > 100 | > 100 | > 100 | > 100 | > 100 | > 100 | > 100 | > 100 | > 100 | > 100 | > 100
4 | O=C(O)CCc1c2ccc(=O)c(O)c-2oc2c(O)c(O)ccc12 | – | > 100 | – | 31.1 | – | > 100 | – | 82.5 | – | > 100 | – | > 100 | – | 29.3 | – | > 100 | – | 65.7 | – | 34.8
5 | Cn1c2ccccc2c2c3[nH][nH]c(=O)c3c3c4ccccc4[nH]c3c21 | 2.47 | 35.7 | 2.03 | 11.1 | 4.74 | 21 | 3.14 | 10.9 | 2.45 | 29.1 | 3.22 | 16.8 | 1.63 | 10.4 | – | – | 1.89 | 5.55 | 2.33 | > 100
6 | C/C(=N\N=C(\[Se])N(C)C)c1ccccn1 | – | 15.9 | – | 16.6 | – | 2.05 | – | 12 | – | 18 | – | 13.5 | – | 8.15 | – | 10.1 | – | 7.8 | – | 14.9
7 | COc1cc(N2CCN(C(C)C)CC2)ccc1Nc1nc(Nc2cccc(F)c2C(=O)O)c2cc[nH]c2n1 | > 25 | > 25 | > 25 | > 25 | > 25 | > 25 | > 25 | > 25 | > 25 | > 25 | > 25 | > 25 | > 25 | > 25 | > 25 | > 25 | > 25 | > 25 | > 25 | > 25
8 | CC(C)CC(Nc1c(O)ccc2ccccc12)C(=O)O (configuration not stated) | – | > 100 | – | 45.6 | – | > 100 | – | 66.6 | – | > 100 | – | > 100 | – | > 100 | – | > 100 | – | > 100 | – | > 100
